Reference: ChEMBL document CHEMBL5154820 (Eur J Med Chem, 2022)

Legend:
[1] = target: T1, Tubulin beta (Homo sapiens) (UniProt P68371+Q9H4B7+Q13509+P04350+Q3ZCM7+P07437+Q13885+Q9BVA1+Q9BUF5+A6NNZ2); assay: Binding affinity to beta-tubulin colchicine binding site in human HeLa cells assessed as decrease of adduct formation by measuring gray value measured at 25 uM incubated for 2 hrs followed by addition of EBI measured after 1.5 hrs by EBI competition based Western blotting analysis; assay type: cell-based; conditions: time 3.5 hrs
[2] = target: Tubulin (Sus scrofa) (UniProt P02554+P02550); assay: Inhibition of pig brain tubulin polymerization at 12.5 uM by spectrophotometer analysis relative to control; set-up: scale not given: the % may be the effect or the level left; conditions: Sus scrofa domesticus
Chain of Tubulin (Sus scrofa) (P02550 whole entry, looked up): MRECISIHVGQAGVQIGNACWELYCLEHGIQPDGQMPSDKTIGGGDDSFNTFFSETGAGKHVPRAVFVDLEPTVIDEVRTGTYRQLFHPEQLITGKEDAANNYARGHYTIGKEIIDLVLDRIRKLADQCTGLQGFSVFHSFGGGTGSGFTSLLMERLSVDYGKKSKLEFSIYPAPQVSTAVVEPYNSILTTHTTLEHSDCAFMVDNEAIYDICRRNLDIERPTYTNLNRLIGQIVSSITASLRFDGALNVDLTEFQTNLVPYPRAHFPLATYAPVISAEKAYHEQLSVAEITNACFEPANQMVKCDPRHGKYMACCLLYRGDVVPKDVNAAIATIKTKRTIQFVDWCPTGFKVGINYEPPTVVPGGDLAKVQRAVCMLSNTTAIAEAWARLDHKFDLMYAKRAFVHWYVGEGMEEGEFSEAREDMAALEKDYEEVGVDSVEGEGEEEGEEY
Chain of Tubulin (Sus scrofa) (P02554 whole entry, looked up): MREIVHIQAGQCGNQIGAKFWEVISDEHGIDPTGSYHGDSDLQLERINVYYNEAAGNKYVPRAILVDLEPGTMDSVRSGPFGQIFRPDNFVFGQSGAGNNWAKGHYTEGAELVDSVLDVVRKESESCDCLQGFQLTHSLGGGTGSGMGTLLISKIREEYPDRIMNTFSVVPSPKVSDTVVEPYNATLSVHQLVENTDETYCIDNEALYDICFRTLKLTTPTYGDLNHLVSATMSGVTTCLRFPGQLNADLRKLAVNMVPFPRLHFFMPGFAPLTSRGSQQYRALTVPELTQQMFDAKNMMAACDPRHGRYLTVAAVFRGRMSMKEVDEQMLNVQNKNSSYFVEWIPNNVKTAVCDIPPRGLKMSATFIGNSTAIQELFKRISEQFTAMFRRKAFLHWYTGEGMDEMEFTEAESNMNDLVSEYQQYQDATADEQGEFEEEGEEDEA

[3] = test system: HeLa; assay: Induction of cell cycle arrest in human HeLa cells assessed as 2N cells at 0.4 uM measured after 24 hrs by propidium iodide staining based flow cytometric analysis analysis ( Rvb = 47.4%); assay type: functional
[4] = test system: HeLa; assay: Induction of apoptosis in human HeLa cells assessed as early apoptotic cells at 0.1 uM measured after 24 hrs by Annexin V-FITC/7-AAD staining based flow cytometric analysis (reference value: 20.8%); assay type: functional
[5] = test system: HeLa; assay: Induction of apoptosis in human HeLa cells assessed as late apoptotic cells at 0.2 uM measured after 24 hrs by Annexin V-FITC/7-AAD staining based flow cytometric analysis (reference value: 8.51%); assay type: functional
[6] = test system: HeLa; assay: Induction of apoptosis in human HeLa cells assessed as necrotic cells at 0.1 uM measured after 24 hrs by Annexin V-FITC/7-AAD staining based flow cytometric analysis (reference value: 0.56%); assay type: functional
[7] = Apparent volume of distribution during terminal phase in C57 nude mouse at 30 mg/kg, ip measured at 0.083 to 24 hrs by LC/MS/MS analysis; assay type: ADME, organism-based; conditions: in vivo, time 0.083-24 hrs, read-out: Vz/F
[8] = test system: HeLa; assay: Antitumor activity against human HeLa cells xenografted in BABL/c mouse assessed as tumor growth inhibition at 30 mg/kg, ip administered daily for 21 days followed by addition of 3 mg/kg DDP for every 2 days relative to control; assay type: functional; conditions: 504 h, time 21 day, read-out: TGI
[9] = test system: HeLa; assay: Antitumor activity against human HeLa cells xenografted in BABL/c mouse assessed assessed as reduction in tumor volume at 60 mg/kg, ip administered daily for 21 days and measured every 3 day ( Rvb = 2336 mm3); assay type: functional; conditions: time 21 day
[10] = Nephrotoxicity in BABL/c mouse assessed as increased creatinine level at 30 mg/kg, ip administered daily for 21 days followed by addition of 3 mg/kg DDP for every 2 days relative to vehicle; assay type: toxicity, organism-based; conditions: in vivo, 504 h, time 21 day
[11] = Nephrotoxicity in BABL/c mouse assessed as increased uric acid level at 30 mg/kg, ip administered daily for 21 days relative to vehicle; assay type: toxicity, organism-based; conditions: in vivo, 504 h, time 21 day
[12] = Nephrotoxicity in BABL/c mouse assessed as increased urea nitrogen level at 60 mg/kg, ip administered daily for 21 days relative to vehicle; assay type: toxicity, organism-based; conditions: in vivo, 504 h, time 21 day
[13] = Toxicity against BABL/c mouse assessed as morphological changes in kidney at 30 to 60 mg/kg, ip administered daily for 21 days by H and E staining method; assay type: organism-based; conditions: in vivo, 504 h, dose 30-60 mg/kg, time 21 day
[14] = Toxicity against BABL/c mouse assessed as morphological changes in heart at 30 mg/kg, ip administered daily for 21 days followed by addition of 3 mg/kg DDP for every 2 days by H and E staining method; assay type: organism-based; conditions: in vivo, 504 h, time 21 day
[15] = target: T1, Tubulin beta (Homo sapiens); assay: Binding affinity to beta-tubulin colchicine binding site in human HeLa cells assessed as decrease of adduct formation by measuring gray value measured at 50 uM incubated for 2 hrs followed by addition of EBI measured after 1.5 hrs by EBI competition based Western blotting analysis; assay type: cell-based; conditions: time 3.5 hrs
[16] = test system: HeLa; assay: Induction of cell cycle arrest in human HeLa cells assessed as 2N cells at 1.5 nM measured after 24 hrs by propidium iodide staining based flow cytometric analysis analysis ( Rvb = 41.7%); assay type: functional
[17] = test system: HeLa; assay: Induction of cell cycle arrest in human HeLa cells assessed as 2N cells at 6 nM measured after 24 hrs by propidium iodide staining based flow cytometric analysis analysis ( Rvb = 41.7%); assay type: functional

SMILES	Activity [1]	Activity [2]	Activity [3]	Activity [4]	Activity [5]	Activity [6]	Vd/F [7]	inhibition in vivo at 30 mg/kg [8]	Activity [9]	Activity [10]	Activity [11]	Activity [12]	Activity [13]	Activity [14]	Activity [15]	Activity [16]	Activity [17]
CCOc1ccc(-c2cncnc2-c2cc(OC)c(OC)c(OC)c2)cc1Cl	1.17	77%	7.03%	35.9%	6.7%	0.5%	11.3 L/kg	73%	1083 mm3	40%	21%	1.3%	Non-Toxic	Non-Toxic	1.51		
COc1ccc(/C=C\c2cc(OC)c(OC)c(OC)c2)cc1O [COMBRETASTATIN A4]																43.1%	25.9%
